Source: patent US20200276181A1, “THIENOISOQUINOLINES AND THEIR DERIVATIVES FOR TARGETING TUBULIN, CH-TOG, AURORA A KINASE, TPX2, CDK5RAP2 AND/OR ASPM” (VALORBEC, SEC, priority 2017, published 2020)

Tests used:
[1] = system: A549 cells; assay: Spindle phenotypes, fixed cells stained for γ-tubulin and ACA; format: cell-based, human; settings: 300 nM for 4 hours
Excerpt: (§1) For each condition, 20,000 cells were counted per replicate (N=3). Line graphs (right) were made to better illustrate the relative changes in the cell cycle phases for the different treatments. Bars show standard deviation. The asterisks indicate the first statistically significant change in the G0/G1 and G2/M populations determined by a two-way ANOVA with a post-hoc Tukey's multiple comparisons test using 95% confidence intervals. FIG. 2B) is a line graph showing the percentage of HCT116 (p53−/−) cells, A549 cells, HeLa cells and H1299 cells in mitosis after treatment with various concentrations of C75 for one population doubling time. All of the cell lines show an increase in the proportion of mitotic cells after treatment with 200 nM C75. The bars indicate standard deviation. […] While the mitotic spindles were not dramatically altered by C75 in HFF1 cells, they were monopolar (as shown) or fragmented in the other cell types. […] The mitotic spindles were more strongly fragmented after C75 treatment in these cells vs. the cells in FIG. 2C). FIG. 2E) are images showing fixed HFF1, HeLa, A549 and HCT 116 cells co-stained for γ-tubulin (spindle poles; white) and ACA (centromeres; light grey) 4 hours after treatment with 300 nM C87 (control) or 300 nM C75. Cartoon schematics show examples of the different spindle phenotypes, including bipolar with aligned chromosomes (top), bipolar with misaligned chromosomes (upper middle), multipolar/fragmented (lower middle), or monopolar (bottom), and the proportion of that phenotype is shown in the top right corner of each image. FIG. 2F) is a bar graph showing the proportion of the different spindle phenotypes for HFF1, HeLa, A549 and HCT 116 cells treated as in FIG. 2E) (n=1355; N=3). Bars show standard deviation. […] While mitotic spindles recovered bipolarity after removing nocodazole, they remained multipolar after removing C75. […] FIG. 2J) is a bar graph showing the proportion of cells with monopolar (black), bipolar (dark grey) or multipolar (light grey) spindles. Bars show standard deviation. FIG. 2K) is a series of time-lapse images of a live HeLa cell expressing GFP:tubulin after treatment with C75 as shown in 2G). […] Drugs were not washed out. […]
(§2) C75 was also tested for efficacy in different cancer cell lines. […] To further assess the role of C75 in disrupting spindles, HeLa cells were treated with 300 nM C75 for 4 hours and the spindle phenotypes were analyzed in more detail (FIG. 2E). […] To assess the affect of C75 on centrosomes, HeLa cells were treated with C75 or nocodazole (a drug that causes microtubule depolymerization as a control) for a short period of time (5 minutes), then the drugs were removed and the cells were analyzed for spindle phenotypes (schematic in FIG. 2G). […]

[2] = system: HeLa cells; assay: as above; format: cell-based, human; settings: 300 nM for 4 hours
Excerpt: as §1, §2

[3] = biological target: T1, GFP-tagged ch-TOG (CKAP5) (Homo sapiens, UniProt Q14008); assay: GFP-tagged ch-TOG localization; format: cell-based; settings: mitotic HeLa cells vs non-treated
T1 construct: expressed in transfected cells; host or cells: HeLa
Experimental: As shown in FIG. 2L and FIG. 6, in HeLa cells expressing SiR-tubulin or GFP-tagged ch-TOG (CKAP5), which localizes to centrosomes, the addition of 100-300 nM of C75 causes the spindle poles to collapse together in metaphase cells within 1-2 minutes. The spindles recover, but become uneven or multipolar.
ch-TOG contains multiple TOG domains that bind to tubulin dimers, and a microtubule-binding domain that binds to the microtubule lattice. If C75 were to bind and inhibit one or more of the TOG domains, this would shift its affinity onto microtubules, while inhibiting the microtubule domain would cause ch-TOG to become cytosolic.

T1 sequence (Q14008 whole entry): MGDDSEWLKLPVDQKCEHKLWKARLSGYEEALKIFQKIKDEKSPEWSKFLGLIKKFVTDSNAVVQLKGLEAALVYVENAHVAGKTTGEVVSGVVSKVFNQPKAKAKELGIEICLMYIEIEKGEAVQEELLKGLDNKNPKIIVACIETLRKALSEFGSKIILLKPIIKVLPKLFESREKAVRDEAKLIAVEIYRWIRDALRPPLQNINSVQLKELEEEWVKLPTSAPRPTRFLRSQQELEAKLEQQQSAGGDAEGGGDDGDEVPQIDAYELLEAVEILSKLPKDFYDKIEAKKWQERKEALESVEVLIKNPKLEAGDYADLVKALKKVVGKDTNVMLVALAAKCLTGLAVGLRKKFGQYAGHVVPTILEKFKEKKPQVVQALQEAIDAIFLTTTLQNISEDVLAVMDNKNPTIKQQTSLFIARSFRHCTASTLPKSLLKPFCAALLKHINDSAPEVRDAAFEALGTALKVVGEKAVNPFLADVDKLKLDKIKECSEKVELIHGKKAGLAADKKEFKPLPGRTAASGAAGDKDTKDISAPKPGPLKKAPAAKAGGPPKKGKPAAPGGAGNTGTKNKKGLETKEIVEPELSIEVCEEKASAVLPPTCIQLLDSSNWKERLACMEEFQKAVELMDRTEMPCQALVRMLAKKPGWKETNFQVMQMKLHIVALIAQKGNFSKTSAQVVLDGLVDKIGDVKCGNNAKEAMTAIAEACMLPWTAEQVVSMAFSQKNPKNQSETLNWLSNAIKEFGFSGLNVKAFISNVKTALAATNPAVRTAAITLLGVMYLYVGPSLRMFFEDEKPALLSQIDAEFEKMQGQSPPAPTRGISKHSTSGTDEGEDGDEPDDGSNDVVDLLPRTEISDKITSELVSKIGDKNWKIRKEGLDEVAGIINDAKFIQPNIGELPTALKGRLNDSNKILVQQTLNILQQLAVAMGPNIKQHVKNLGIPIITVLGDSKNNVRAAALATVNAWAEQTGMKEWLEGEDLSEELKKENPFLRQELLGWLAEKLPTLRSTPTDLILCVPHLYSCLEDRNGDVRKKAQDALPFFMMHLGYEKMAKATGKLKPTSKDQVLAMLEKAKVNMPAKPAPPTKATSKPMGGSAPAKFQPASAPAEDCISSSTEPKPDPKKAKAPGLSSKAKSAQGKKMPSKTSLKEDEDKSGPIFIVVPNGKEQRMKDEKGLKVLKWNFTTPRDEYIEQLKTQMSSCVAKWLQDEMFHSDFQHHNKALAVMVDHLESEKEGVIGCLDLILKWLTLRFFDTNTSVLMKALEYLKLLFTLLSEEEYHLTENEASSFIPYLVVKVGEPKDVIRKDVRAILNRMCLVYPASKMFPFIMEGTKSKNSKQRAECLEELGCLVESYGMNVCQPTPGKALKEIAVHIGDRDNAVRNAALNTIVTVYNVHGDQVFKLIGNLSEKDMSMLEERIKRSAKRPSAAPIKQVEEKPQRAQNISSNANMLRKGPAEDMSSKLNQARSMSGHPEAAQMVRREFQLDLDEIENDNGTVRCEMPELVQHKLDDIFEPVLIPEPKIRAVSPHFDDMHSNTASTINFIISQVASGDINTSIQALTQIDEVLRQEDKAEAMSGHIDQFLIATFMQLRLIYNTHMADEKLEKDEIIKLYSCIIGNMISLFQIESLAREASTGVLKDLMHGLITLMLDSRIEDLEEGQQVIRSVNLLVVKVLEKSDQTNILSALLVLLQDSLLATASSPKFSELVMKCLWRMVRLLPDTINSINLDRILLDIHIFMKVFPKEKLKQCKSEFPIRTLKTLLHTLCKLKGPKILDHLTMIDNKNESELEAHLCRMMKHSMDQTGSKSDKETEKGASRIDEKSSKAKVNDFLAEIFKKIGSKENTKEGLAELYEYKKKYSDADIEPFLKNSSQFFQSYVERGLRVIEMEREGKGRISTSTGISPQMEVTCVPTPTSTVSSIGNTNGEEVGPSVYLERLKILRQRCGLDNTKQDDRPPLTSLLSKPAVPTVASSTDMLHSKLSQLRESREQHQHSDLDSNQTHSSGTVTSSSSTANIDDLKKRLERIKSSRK

## COc1ccc(S(=O)(=O)N2Cc3ccccc3-c3sc(Br)cc32)cc1 [Compound C75]
[1]
  cells with bipolar spindles with misaligned chromosomes: 17%
  cells with multipolar or fragmented spindles: 78%
[2]
  cells with bipolar spindles with misaligned chromosomes: 41%
  cells with multipolar or fragmented spindles: 31%
[3]
  ch-TOG localization after treatment: enriched at the centrosomes
